Measured values as given in ChEMBL document CHEMBL1201862, “PubChem BioAssay data set” (2004).
Active and inactive are the calls of the source.

Assays:
Caspase-3 = biological target: T1, Caspase-3 (Homo sapiens, UniProt P42574); format: functional;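 note: Dose-response selectivity test against caspase-3 for candidate inhibitors of sentrin-specific proteases (SENPs)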
T1 sequence (P42574 whole entry): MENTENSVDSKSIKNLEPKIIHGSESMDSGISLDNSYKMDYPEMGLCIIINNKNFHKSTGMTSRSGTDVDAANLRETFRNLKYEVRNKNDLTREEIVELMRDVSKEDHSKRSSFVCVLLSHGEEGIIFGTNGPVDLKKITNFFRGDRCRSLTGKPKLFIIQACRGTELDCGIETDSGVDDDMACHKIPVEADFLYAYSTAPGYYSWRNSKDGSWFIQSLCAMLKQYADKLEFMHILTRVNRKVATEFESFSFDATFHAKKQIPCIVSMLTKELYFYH

[1] = biological target: T2, Sentrin-specific protease 6 (Homo sapiens, UniProt Q9GZR1); format: functional;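 note: Luminescence-based dose-response confirmatory assay of SENP6 inhibition, following up an ultra-high-throughput screen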
T2 sequence (Q9GZR1 whole entry): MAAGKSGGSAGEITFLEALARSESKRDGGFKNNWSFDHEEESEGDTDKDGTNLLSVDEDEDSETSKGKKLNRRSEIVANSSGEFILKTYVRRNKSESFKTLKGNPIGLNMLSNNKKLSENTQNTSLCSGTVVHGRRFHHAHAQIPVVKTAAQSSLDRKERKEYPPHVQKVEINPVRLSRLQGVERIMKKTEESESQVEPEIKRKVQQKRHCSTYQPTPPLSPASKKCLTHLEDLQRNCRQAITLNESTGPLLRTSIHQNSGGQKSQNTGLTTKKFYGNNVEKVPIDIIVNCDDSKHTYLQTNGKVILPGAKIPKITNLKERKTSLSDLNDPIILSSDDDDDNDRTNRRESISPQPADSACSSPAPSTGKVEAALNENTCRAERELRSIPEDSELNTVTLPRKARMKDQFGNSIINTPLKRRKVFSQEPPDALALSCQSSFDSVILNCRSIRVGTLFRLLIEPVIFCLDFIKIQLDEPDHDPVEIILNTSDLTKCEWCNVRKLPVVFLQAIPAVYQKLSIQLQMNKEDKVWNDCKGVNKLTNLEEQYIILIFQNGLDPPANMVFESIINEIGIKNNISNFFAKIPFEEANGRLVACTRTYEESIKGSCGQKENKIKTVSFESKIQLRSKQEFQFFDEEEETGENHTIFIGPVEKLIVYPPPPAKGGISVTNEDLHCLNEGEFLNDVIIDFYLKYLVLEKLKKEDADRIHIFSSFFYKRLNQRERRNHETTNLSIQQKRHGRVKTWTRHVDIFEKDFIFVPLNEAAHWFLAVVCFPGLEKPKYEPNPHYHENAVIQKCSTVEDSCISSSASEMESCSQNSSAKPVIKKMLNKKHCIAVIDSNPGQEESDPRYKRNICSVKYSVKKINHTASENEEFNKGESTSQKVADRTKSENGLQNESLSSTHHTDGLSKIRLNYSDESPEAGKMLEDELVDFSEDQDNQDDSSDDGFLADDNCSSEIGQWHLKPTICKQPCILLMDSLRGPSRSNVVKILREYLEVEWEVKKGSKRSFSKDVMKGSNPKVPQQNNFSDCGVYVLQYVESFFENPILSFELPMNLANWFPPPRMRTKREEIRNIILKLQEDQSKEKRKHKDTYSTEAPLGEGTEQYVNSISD

[2] = biological target: T3, Sentrin-specific protease 8 (Homo sapiens, UniProt Q96LD8); format: functional
T3 sequence (Q96LD8 whole entry): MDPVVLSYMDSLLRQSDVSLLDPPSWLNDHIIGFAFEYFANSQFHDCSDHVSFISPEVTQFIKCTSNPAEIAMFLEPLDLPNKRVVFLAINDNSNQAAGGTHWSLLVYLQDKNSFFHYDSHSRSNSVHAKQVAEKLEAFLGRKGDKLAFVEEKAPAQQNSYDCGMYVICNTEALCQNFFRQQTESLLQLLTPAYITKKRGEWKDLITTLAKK

[3] = fluconazole-exposed Candida albicans growth modulators – fluorescence, retest, confirmation (AID 2467); format: functional, cell-based
Insulin-degrading enzyme = biological target: T4, Insulin-degrading enzyme (Homo sapiens, UniProt P14735); test: recombinant IDE activation, cell-free – biochemical, fluorescence polarization, counter-screen for IDE activator project, dose response (AID 588681)
T4 sequence (P14735 whole entry): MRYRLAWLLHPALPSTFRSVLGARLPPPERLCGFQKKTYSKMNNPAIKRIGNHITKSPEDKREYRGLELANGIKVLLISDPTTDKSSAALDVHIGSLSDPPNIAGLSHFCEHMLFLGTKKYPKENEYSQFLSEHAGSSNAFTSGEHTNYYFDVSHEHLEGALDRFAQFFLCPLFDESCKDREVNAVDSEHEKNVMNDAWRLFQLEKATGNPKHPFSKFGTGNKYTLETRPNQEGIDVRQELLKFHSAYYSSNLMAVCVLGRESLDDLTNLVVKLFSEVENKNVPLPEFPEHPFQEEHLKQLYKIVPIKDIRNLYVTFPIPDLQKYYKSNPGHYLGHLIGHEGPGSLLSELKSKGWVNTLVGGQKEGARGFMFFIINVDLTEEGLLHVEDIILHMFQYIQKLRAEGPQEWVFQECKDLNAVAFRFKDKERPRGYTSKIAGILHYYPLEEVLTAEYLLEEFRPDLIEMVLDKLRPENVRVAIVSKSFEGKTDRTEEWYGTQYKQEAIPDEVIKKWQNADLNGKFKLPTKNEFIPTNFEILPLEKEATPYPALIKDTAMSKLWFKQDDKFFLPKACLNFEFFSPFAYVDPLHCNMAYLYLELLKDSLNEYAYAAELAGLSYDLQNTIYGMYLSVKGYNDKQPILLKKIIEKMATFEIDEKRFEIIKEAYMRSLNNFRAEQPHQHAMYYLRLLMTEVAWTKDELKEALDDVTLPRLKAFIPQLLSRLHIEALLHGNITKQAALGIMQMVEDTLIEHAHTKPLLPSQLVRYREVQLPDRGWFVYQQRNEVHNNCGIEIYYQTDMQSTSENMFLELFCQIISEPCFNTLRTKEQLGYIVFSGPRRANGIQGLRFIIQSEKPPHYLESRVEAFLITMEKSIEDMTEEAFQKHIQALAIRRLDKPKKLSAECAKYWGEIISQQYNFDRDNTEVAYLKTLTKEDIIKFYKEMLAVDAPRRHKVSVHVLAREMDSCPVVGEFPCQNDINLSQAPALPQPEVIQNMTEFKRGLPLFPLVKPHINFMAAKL

HEK293 = test: membrane integrity loss in HEK cells – cell-based, fluorescence, cytotoxicity control for IDE activator project, dose response (AID 588440); format: functional; details: Homo sapiens;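 note: cytotoxicity by LDH release measuring loss of membrane integrity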
Aurora kinase A = Aurora kinase A (Homo sapiens, UniProt O14965); format: functional;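 note: value from the Navigating the Kinome kinase panel profiling, panel entry STK6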
Aurora kinase A, sequence (O14965 whole entry): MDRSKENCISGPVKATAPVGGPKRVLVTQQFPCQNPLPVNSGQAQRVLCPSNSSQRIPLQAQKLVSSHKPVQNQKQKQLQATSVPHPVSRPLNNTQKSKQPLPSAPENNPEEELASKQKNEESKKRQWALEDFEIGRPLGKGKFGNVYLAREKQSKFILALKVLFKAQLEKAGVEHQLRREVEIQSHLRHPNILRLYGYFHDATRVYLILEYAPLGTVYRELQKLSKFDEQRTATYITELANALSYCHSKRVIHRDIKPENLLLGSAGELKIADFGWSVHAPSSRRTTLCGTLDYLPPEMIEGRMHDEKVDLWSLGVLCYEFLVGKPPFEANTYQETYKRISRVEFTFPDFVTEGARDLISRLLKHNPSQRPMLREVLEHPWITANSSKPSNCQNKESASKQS

[4] = biological target: Glycogen synthase kinase-3 alpha (Homo sapiens, UniProt P49840); format: functional;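 note: GSK3A result taken from a broad kinome-wide kinase panel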
Glycogen synthase kinase-3 alpha, sequence (P49840 whole entry): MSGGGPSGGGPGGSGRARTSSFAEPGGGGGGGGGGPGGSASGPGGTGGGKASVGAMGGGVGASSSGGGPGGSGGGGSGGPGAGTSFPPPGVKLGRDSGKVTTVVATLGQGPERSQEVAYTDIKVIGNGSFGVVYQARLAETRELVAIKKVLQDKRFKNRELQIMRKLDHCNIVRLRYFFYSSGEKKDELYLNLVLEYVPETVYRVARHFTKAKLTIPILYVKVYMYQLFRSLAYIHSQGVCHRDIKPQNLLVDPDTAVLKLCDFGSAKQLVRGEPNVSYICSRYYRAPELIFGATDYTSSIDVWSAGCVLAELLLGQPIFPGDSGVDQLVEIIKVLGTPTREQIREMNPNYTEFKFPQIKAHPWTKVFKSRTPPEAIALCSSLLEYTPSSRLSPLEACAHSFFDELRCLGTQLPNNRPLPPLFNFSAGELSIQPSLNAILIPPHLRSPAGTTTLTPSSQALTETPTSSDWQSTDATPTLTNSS

[5] = biological target: Platelet-derived growth factor receptor alpha (Homo sapiens, UniProt P16234); test: Navigating the Kinome. Panel member name: PDGFRA; format: functional
Platelet-derived growth factor receptor alpha, sequence (P16234 whole entry): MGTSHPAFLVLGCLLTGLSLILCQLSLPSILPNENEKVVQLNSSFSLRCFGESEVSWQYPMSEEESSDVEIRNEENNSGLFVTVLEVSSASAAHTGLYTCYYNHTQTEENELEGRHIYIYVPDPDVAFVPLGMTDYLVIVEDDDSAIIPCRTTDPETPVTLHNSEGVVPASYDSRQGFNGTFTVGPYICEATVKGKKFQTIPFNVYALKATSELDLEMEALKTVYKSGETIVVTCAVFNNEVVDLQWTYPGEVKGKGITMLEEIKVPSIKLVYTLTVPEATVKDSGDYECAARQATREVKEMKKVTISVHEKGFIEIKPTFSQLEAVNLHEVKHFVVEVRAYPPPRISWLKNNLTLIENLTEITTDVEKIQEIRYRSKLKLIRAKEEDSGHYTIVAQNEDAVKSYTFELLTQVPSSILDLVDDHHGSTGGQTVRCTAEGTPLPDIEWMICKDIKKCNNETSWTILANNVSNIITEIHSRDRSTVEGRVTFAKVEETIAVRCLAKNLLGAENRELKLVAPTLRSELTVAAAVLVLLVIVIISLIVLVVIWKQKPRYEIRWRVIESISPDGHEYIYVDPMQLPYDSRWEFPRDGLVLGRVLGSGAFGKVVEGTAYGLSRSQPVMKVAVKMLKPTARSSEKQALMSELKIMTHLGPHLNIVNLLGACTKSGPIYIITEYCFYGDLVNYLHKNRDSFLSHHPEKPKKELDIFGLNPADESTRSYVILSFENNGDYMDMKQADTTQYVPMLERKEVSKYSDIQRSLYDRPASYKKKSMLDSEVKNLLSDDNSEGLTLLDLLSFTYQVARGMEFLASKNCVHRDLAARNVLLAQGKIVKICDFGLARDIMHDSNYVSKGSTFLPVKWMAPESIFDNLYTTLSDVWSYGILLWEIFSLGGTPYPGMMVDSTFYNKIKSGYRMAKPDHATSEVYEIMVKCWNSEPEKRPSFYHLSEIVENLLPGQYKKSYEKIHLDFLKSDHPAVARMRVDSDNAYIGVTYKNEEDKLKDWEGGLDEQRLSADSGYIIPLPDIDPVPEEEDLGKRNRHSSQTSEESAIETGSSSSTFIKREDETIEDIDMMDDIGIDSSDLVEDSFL

[6] = biological target: Dual specificity tyrosine-phosphorylation-regulated kinase 1A (Homo sapiens, UniProt Q13627); format: functional;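 note: measured against DYRK1A as one member of a broad kinome profiling panel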

O=C(NNc1cc(N2CCCC2)nc(N2CCCC2)n1)c1ccc([N+](=O)[O-])cc1
IC50 (Caspase-3): > 100000 nM (inactive)
IC50 [1]: 1810 nM (active)
IC50 [2]: 155 nM (active)

O=S(=O)(O)c1cccc2c(N=Nc3ccc(O)c4ncccc34)cccc12
EC50 [3]: > 38000 nM (not active)
EC50 (Insulin-degrading enzyme): 17300 nM (inactive)
IC50 (HEK293): > 89300 nM (inactive)

O=C(Cc1cccs1)Nc1nc2ccccc2s1
Ki (Aurora kinase A): 398 nM (active)
Ki [4]: > 3980 nM (inactive)
Ki [5]: 1580 nM (active)
Ki [6]: 501 nM (active)
